Source: PMC8459971, “Evaluation of the hepatotoxicity of the novel GPR40 (FFAR1) agonist CPL207280 in the rat and monkey” (PLoS ONE, 2021)
Where “and” joins values, the source holds several entries; their conditions need not be identical. Equal values may be shown once. Read-outs that look alike come from different tables or passages of the source. Marks after values point to notes of the source that are not given here.

Experiments:
[1] = Repeat-dose study in healthy Cynomolgus monkeys, safety (14 and 56 days)
BSEP [2] = target: T1, BSEP (Homo sapiens, UniProt O95342); test: in vitro; settings: membrane vesicle preparations (BSEP)
T1 sequence (O95342 whole entry): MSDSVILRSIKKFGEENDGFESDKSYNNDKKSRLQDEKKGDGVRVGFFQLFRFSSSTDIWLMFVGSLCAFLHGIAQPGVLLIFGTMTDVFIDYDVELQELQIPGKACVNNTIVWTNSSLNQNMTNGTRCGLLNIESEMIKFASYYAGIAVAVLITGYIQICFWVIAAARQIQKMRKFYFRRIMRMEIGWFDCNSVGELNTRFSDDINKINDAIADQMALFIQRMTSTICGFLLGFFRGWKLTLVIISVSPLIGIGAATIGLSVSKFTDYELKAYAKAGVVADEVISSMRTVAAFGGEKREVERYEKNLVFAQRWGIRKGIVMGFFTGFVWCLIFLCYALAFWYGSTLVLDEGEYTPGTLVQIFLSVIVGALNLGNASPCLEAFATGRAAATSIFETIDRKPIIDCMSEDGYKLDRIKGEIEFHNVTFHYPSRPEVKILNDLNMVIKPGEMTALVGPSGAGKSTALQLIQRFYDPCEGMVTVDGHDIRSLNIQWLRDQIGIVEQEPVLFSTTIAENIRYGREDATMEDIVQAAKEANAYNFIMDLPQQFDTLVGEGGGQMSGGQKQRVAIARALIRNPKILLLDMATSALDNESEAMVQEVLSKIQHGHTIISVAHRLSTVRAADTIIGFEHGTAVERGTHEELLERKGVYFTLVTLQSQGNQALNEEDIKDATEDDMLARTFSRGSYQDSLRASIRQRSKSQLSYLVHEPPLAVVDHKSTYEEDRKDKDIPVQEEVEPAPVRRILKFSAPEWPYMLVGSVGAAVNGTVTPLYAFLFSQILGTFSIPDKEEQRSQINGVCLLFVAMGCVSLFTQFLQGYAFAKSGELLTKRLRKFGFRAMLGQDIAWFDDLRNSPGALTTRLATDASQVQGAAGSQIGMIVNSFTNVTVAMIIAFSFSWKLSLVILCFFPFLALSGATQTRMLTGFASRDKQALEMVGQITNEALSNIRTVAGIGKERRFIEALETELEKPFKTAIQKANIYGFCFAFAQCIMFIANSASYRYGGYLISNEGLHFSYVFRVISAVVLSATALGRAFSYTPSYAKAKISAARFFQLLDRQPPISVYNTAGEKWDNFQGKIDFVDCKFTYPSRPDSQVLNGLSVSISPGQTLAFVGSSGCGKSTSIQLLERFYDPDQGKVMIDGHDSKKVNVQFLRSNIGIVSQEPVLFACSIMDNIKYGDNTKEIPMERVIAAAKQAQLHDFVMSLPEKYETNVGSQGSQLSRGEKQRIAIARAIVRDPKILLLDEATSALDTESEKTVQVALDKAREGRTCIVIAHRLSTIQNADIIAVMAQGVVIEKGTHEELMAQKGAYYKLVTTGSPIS
Method: (§1) In the vesicular transport inhibition assay (for BSEP, MRP) compounds were incubated with membrane vesicle preparations and the probe substrate. Incubations were carried out in the presence of 4 mM ATP or AMP to distinguish between transporter-mediated uptake and passive diffusion into the vesicles. For MRP2 and MRP3, reactions were carried out in the presence of 2 mM glutathione. Compounds were added to the reaction mixture in 0.75 μL of solvent (1% of the final incubation volume). […] Reactions were initiated by the addition of 25 μL of 12 mM MgATP (or 12 mM AMP in assay buffer as a background control) and preincubated separately. Reactions were quenched by the addition of 200 μL of ice-cold washing buffer and immediate filtration via glass fiber filters mounted on a 96-well plate (filter plate). The filters were washed (5 × 200 μL of ice-cold washing buffer), dried, and the amount of substrate inside the filtered vesicles was determined by liquid scintillation counting.

[3] = Repeat-dose study in diabetic cynomolgus monkeys, serum ALT and AST; format: in vivo; settings: 2.2 and 22 mg/kg, 28 treatment days
Source text: All animals aged 8–20 years had ad libitum access to water and were fed twice daily with a complete nutritionally balanced diet (Beijing Keao Xieli Feed Co., LTD, Beijing, China) enriched with seasonal fruits. The cynomolgus monkeys used in the study were cared for and handled in accordance with all applicable Association for Assessment and Accreditation of Laboratory Animal Care regulations and guidelines. […] After each treatment (weighing, bleeding, or dosing), the animals were clinically observed on the day of the procedure and, if previously anesthetized, the animals were monitored to stand up and alert. Nine selected diabetic animals were subjected to daily test compound (powder) dosing via natural feeding with bananas (n = 3). Blood from overnight-fasted animals was collected weekly in the morning for measurement of serum ALT and AST levels on days 0, 7, 14, 21, 28, and 35. Blood samples (1.5 mL) were collected from a cephalic or saphenous vein into BD Vacutainer® and K2-EDTA tubes.

[4] = Stability in cryopreserved hepatocytes, dog; format: in vitro ADME; settings: for Compound Remaining (% of 0 min): Hepatocyte Stability Dog, single replicates
Method: The final incubation volume was 500 μL. Two control compounds (verapamil and donepezil) were included for each microsomal species, along with the appropriate vehicle control. The reactions were terminated by transferring 50 μL of incubate to 100 μL methanol containing an internal standard (metoprolol) at appropriate time points (0, 10, 20, 40, 60, and 120 min for the test compound and 0, 5, 10, 20, 40, and 60 min for the control compounds). The termination plates were centrifuged at 4000 x g at 4°C for 30 min to precipitate the protein. The supernatants were then collected for analysis, and LC-MS/MS was used for detection purposes. The system consisted of an Acquity™ Binary Solvent Manager, Acquity™ 4-position heated column manager, 2777 Ultra High Pressure Autosampler, and a Xevo-TQ MS triple quadrupole mass spectrometer (Waters Ltd., Herts, UK). This process was carried out twice.

[5] = Single-dose pharmacokinetics in monkeys (p.o. and i.v.); format: in vivo, monkey; settings: for bioavailability: p.o. vs i.v., read-out: F (bioavailability)
[6] = Metabolite profiling, rat hepatocytes; format: in vitro ADME; settings: 10 μM CPL207280, 120 min, ND = not detected
Method: Suspensions of cryopreserved human, rat, and monkey hepatocytes were pooled from a minimum of three individuals. All cryopreserved hepatocytes were purchased from a commercial supplier. […] The cell density was 0.5 ×10^6 viable cells/mL. The final DMSO concentration during the incubation was 0.25%. Control incubations were performed in lysed cells to reveal any non-enzymatic degradation. Two control compounds were identified in each species. Samples (50 μL) were removed from the incubation mixture at 0, 10, 20, 40, 60, and 120 min and added to methanol containing an internal standard (100 μL) to stop the reaction. The samples were centrifuged (4000 x g at 4°C for 30 min) and the supernatants at each time point were pooled for analysis by LC MS/MS using Cyprotex generic methods. Following hepatocyte stability assays, the samples were utilized for metabolite profiling. […] Metabolites were characterized using a mass spectrometer comprising Waters Xevo QT of G2-S, Acquity Binary Solvent Manager, Acquity Column Manager, and 2777 Autosampler.

[7] = cited from earlier work; for AUC24h (Mean) / Cmax (Mean): rat; for exposure in plasma (AUC): rats
[8] = summary table, literature; cited from earlier work
[9] = 600 mg/kg for 14 days; cited from earlier work
BSEP [10] = target: T1, BSEP; test: biochemical
Method: as §1

[11] = cryopreserved hepatocytes (suspension), Dog (Beagle) hepatocytes, mean n = 2
[12] = 14-day toxicology study in rats

For `CC#C[C@@H](CC(=O)O)c1ccc(OCC(C)=C(C)C)cc1` [CPL207280], the liver safety parameters ([1]; 50–250 mg/kg/day, 14 and 56 days) was “No alteration of liver safety parameters”, the “hepatocyte hypertrophy and liver mass” value ([1]; after the 14 and 56-day treatment) was “neither hypertrophy nor increased liver mass was observed” and the IC50 (BSEP [2]) was over 100 µM. The “liver safety markers (ALT, AST) vs vehicle group” value [3] was “none of the doses altered liver safety markers”, the “Compound Remaining (% of 0 min)” value ([4]; 0 min) was 100 % of 0 min and the “Compound Remaining (% of 0 min)” value ([4]; 10 min) was 93.0 % of 0 min and 92.9 % of 0 min. For the same compound, the “Compound Remaining (% of 0 min)” value ([4]; 20 min) was 83.6 % of 0 min and 74.9 % of 0 min, the “Compound Remaining (% of 0 min)” value ([4]; 40 min) was 73.0 % of 0 min and 74.7 % of 0 min and the “Compound Remaining (% of 0 min)” value ([4]; 60 min) was 61.1 % of 0 min and 62.8 % of 0 min. For the same compound, the “Compound Remaining (% of 0 min)” value ([4]; 120 min) was 65.2 % of 0 min and 60.1 % of 0 min, the half-life at 3 μM [4, 11] was 3 h and the microsomal CLint at 3 μM [4, 11] was 7.76 µL/min/mg. The Cmax ([5]; cynomolgus, monkey, plasma, 6 mg/kg, monkey, dose 6 mg/kg, Day 1, individual animals) was 199 ng/mL, the plasma conc ([5]; monkey, 0,5 mg/kg i.v., 0.5 h, single animals) was 643.5 and 572.2 and the plasma conc ([5]; monkey, 0,5 mg/kg i.v., 1 h, single animals) was 149.8 and 119.5. For the same compound, the plasma conc ([5]; monkey, 0,5 mg/kg i.v., 2 h, single animals) was 95.2 and 24.4 and 69.6, the plasma conc ([5]; monkey, 0,5 mg/kg i.v., 4 h, single animals) was 49.5 and 52.7 and 23.2 and the plasma conc ([5]; monkey, 0,5 mg/kg i.v., 6 h, single animals) was 17.1 and 41 and 11.9. The plasma conc ([5]; monkey, 0,5 mg/kg i.v., 8 h, single animals) was 17.5 and 13.5, the plasma conc ([5]; monkey, 0,5 mg/kg i.v., 12 h, single animals) was 6.2 and 10.5 and 4 and the plasma conc ([5]; monkey, 0,5 mg/kg i.v., 24 h, single animals) was 1.1 and 1.6 and 0. The plasma conc ([5]; monkey, 1,5 mg/kg p.o., 0 h, single animals) was 0, the plasma conc ([5]; monkey, 1,5 mg/kg p.o., 0.5 h, single animals) was 806.5 and 1491 and 408.8 and the plasma conc ([5]; monkey, 1,5 mg/kg p.o., 1 h, single animals) was 1309.1 and 1299.9. The plasma conc ([5]; monkey, 1,5 mg/kg p.o., 2 h, single animals) was 1251.6 and 605.2 and 1177.7, the plasma conc ([5]; monkey, 1,5 mg/kg p.o., 4 h, single animals) was 75.2 and 203.9 and 54.2 and the plasma conc ([5]; monkey, 1,5 mg/kg p.o., 8 h, single animals) was 31 and 109.7 and 13.2. The plasma conc ([5]; monkey, 1,5 mg/kg p.o., 12 h, single animals) was 13.7 and 53.4 and 8.1, the plasma conc ([5]; monkey, 1,5 mg/kg p.o., 24 h, single animals) was 1.6 and 5.3 and 0 and the “exposure - AUC” value ([5]; monkey, dose 6 mg/kg, Day 1, individual animals, 6 mg/kg) was 31.225 µg·h/mL and 16.287 µg·h/mL. It also gave an AUC ([5]; monkey, plasma, 6 mg/kg, monkey, dose 6 mg/kg, Day 1, individual animals, read-out: exposure - AUC) of 18.2 µg·h/mL, a concentration at 0.5 h ([5]; monkey, plasma, intravenous, 0.5 mg/kg, monkey, 0,5 mg/kg i.v., 0.5 h, single animals, read-out: plasma conc) of 704 ng/mL and a concentration at 1 h ([5]; monkey, plasma, intravenous, 0.5 mg/kg, monkey, 0,5 mg/kg i.v., 1 h, single animals, read-out: plasma conc) of 198 ng/mL. It also gave a concentration at 8 h ([5]; monkey, plasma, intravenous, 0.5 mg/kg, monkey, 0,5 mg/kg i.v., 8 h, single animals, read-out: plasma conc) of 10.2 ng/mL, a k el ([5]; monkey, plasma, intravenous, monkeys, single dose) of 5.56e-05 s⁻¹ and a Cmax ([5]; monkey, plasma, iv, 0.5 mg/kg, monkeys, 0,5 mg/kg i.v., n = 3) of 3120 ± 161 ng/mL. It also gave a Tmax ([5]; monkey, plasma, iv, 0.5 mg/kg, monkeys, 0,5 mg/kg i.v.) of 0.083 h, an AUC ([5]; monkey, plasma, iv, 0.5 mg/kg, monkeys, 0,5 mg/kg i.v., read-out: AUC) of 1.37 ± 0.194 µg·h/mL and a concentration at 0 h ([5]; monkey, plasma, oral, 1.5 mg/kg, monkey, 1,5 mg/kg p.o., 0 h, single animals, read-out: plasma conc) of 0 ng/mL. The concentration at 1 h ([5]; monkey, plasma, oral, 1.5 mg/kg, monkey, 1,5 mg/kg p.o., 1 h, single animals, read-out: plasma conc) was 2250 ng/mL, the bioavailability ([5]; monkey, plasma, oral, 1.5 mg/kg, monkeys) was about 99% and the Cmax ([5]; monkey, plasma, po, 1.5 mg/kg, monkeys, 1,5 mg/kg p.o., n = 3) was 1680 ± 502 ng/mL. It also gave a Tmax ([5]; monkey, plasma, po, 1.5 mg/kg, monkeys, 1,5 mg/kg p.o.) of 1 h, an AUC ([5]; monkey, plasma, po, 1.5 mg/kg, monkeys, 1,5 mg/kg p.o., read-out: AUC) of 4.06 ± 0.794 µg·h/mL and a bioavailability ([5]; monkey, plasma, po, 1.5 mg/kg, monkeys) of 99%. The “rat % of parent at 120 min” value [6] was 57.6%.
For `Cc1cc(OCCCS(C)(=O)=O)cc(C)c1-c1cccc(COc2ccc3c(c2)OC[C@H]3CC(=O)O)c1` [TAK-875, fasiglifam, reference compound], the “effect on ALT” value [7, 12] is given as “significantly increased ALT at doses of 200 and 600 mg/kg after seven days”, the “effect on TBA and T-BIL” value [7, 12] is given as “increased TBA and T-BIL levels at a dose of 600 mg/kg” and the “AUC24h (Mean)” value ([7]; Day 1, Dose 200 mg/kg/day) is given as 1210000* ng x hr/mL. The “Cmax (Mean)” value ([7]; Day 1, Dose 200 mg/kg/day) was 296000* ng/ml, the “AUC24h (Mean)” value ([7]; Day 1, Dose 600 mg/kg/day) was 2010000* ng x hr/mL and the “Cmax (Mean)” value ([7]; Day 1, Dose 600 mg/kg/day) was 465000* ng/ml. For the same compound, the “AUC24h (Mean)” value ([7]; Day 14, Dose 200 mg/kg/day) was 3740000* ng x hr/mL, the “Cmax (Mean)” value ([7]; Day 14, Dose 200 mg/kg/day) was 271000* ng/ml and the “AUC24h (Mean)” value ([7]; Day 14, Dose 600 mg/kg/day) was 6610000* ng x hr/mL. The “Cmax (Mean)” value ([7]; Day 14, Dose 600 mg/kg/day) was 383000* ng/ml, the “exposure in plasma (AUC)” value ([7]; 200 mg/kg, day 1) was 1210 µg·h/mL and the “exposure in plasma (AUC)” value ([7]; 200 mg/kg, day 14) was 3740 µg·h/mL. The “exposure in plasma (AUC)” value ([7]; 600 mg/kg, day 1) was 2010 µg·h/mL, the “exposure in plasma (AUC)” value ([7]; 600 mg/kg, day 14) was 6610 µg·h/mL and the “Accumulation in rat plasma after repeat dose” value ([7]; summary table) was “Yes”. The “Propensity to elevate bile acids and bilirubin in plasma” value ([7]; summary table) was “Yes”, the “Acyl glucuronide presence in human hepatocytes” value [8] was “Yes” and the “effect on ALT, TBA, T-BIL in dogs” value [9] was “observed in only 2 of 6 animals”. The IC50 (BSEP [10]) was 47.3 µM.
